Source: US10570122B2, “Compounds with anti-tumoral activity” (AB Science, priority 2015, dated 2020)

Experiments:
HCT116 = test: CellTiter-Blue cell-based survival/proliferation assay, HCT116; conditions: Homo sapiens, HCT-116; HCT116 colorectal tumor cell line, 48 h
Procedure, shortened: (§1)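 Compounds, diluted tenfold serially over 0–10 μM, are applied to 1·10^4 seeded cells per well for 48 h at 37 °C. Resorufin formed during a further 4 h with CellTiter-Blue is detected by fluorescence emission at 590 nm.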

A375 = test: CellTiter-Blue cell-based survival/proliferation assay, A375; conditions: Homo sapiens, A-375; A375 melanoma cell line, 48 h
Procedure: (§2) Cell-Based Proliferation Screening of Compounds
(§3) CellTiter-Blue cell-based survival/proliferation assay (Promega G8080) was performed on tumor cell lines. A total of 1·10^4 cells/well/50 μl were seeded in a 96-wells plate. Treatment was initiated by addition of a 2× drug solution of 1/10 serial dilutions ranging from 0 to 10 μM. Cells were grown for 48 h at 37° C. and then incubated with 10 μl/well of Promega CellTiter-Bleue reagent for 4 h at 37° C. The amount of resorufin dye formed was quantified by its fluorescence emission at 590 nm using a scanning multiwell spectrophotometer (OPTIMA, BMG labtech, France). A blank well without cells was used as a background control for the spectrophotometer.

PLCPRF5 = test: CellTiter-Blue cell-based survival/proliferation assay, PLCPRF5; conditions: Homo sapiens, PLC-PRF-5; PLC_PRF5 liver tumor cell line, 48 h
Procedure, shortened: as §1

AGS = test: CellTiter-Blue cell-based survival/proliferation assay, AGS; conditions: Homo sapiens; AGS stomach tumor cell line, 48 h
Procedure, shortened: as §1

BXPC3 = test: CellTiter-Blue cell-based survival/proliferation assay, BXPC3; conditions: Homo sapiens, BXPC-3; BXPC3 pancreas tumor cell line, 48 h
Procedure, shortened: as §1

DLD1 = test: CellTiter-Blue cell-based survival/proliferation assay, DLD1; conditions: Homo sapiens, DLD-1; DLD_1 colorectal tumor cell line, 48 h
Procedure, shortened: as §1

MDAMB231 = test: CellTiter-Blue cell-based survival/proliferation assay, MDAMB231; conditions: Homo sapiens, MDA-MB-231; MDAMB231 breast tumor cell line, 48 h
Procedure, shortened: as §1

U118 = test: CellTiter-Blue cell-based survival/proliferation assay, U118; conditions: Homo sapiens; U118 glioblastoma cell line, 48 h
Procedure: as §2, §3

HGC27 = test: CellTiter-Blue cell-based survival/proliferation assay, HGC27; conditions: Homo sapiens, HGC-27; HGC27 stomach tumor cell line, 48 h
Procedure, shortened: as §1

HEPG2 = test: CellTiter-Blue cell-based survival/proliferation assay, HEPG2; conditions: Homo sapiens; HEPG2 liver tumor cell line, 48 h
Procedure, shortened: as §1

HUT78 = test: CellTiter-Blue cell-based survival/proliferation assay, HUT78; conditions: Homo sapiens, Lymphoma cell line HUT78, 48 h, read-out: Anti-tumoral activity (measured IC50) HUT78
Procedure, shortened: as §1

OPM2 = test: CellTiter-Blue cell-based survival/proliferation assay, OPM2; conditions: Homo sapiens, OPM-2, Myeloma cell line OPM2, 48 h, read-out: Anti-tumoral activity (measured IC50) OPM2
Procedure, shortened: as §1

KARPAS299 = test: CellTiter-Blue cell-based survival/proliferation assay, KARPAS299; conditions: Homo sapiens, KARPAS-299, Lymphoma cell line KARPAS299, 48 h, read-out: Anti-tumoral activity (measured IC50) KARPAS299
Procedure, shortened: as §1

PANC1 = test: CellTiter-Blue cell-based survival/proliferation assay, PANC1; conditions: Homo sapiens, PANC-1; PANC_1 pancreas tumor cell line, 48 h
Procedure, shortened: as §1

CLS354 = test: CellTiter-Blue cell-based survival/proliferation assay, CLS354; conditions: Homo sapiens, CLS-354; CLS354_4 head & neck tumor cell line, 48 h
Procedure, shortened: as §1

MESSA = test: CellTiter-Blue cell-based survival/proliferation assay, MESSA; conditions: Homo sapiens, MES-SA; MESSA ovary tumor cell line, 48 h
Procedure, shortened: as §1

TOV112D = test: CellTiter-Blue cell-based survival/proliferation assay, TOV112D; conditions: Homo sapiens; TOV112D ovary tumor cell line, 48 h
Procedure, shortened: as §1

BT20 = test: CellTiter-Blue cell-based survival/proliferation assay, BT20; conditions: Homo sapiens, BT-20; BT20 breast tumor cell line, 48 h
Procedure, shortened: as §1

H1299 = test: CellTiter-Blue cell-based survival/proliferation assay, H1299; conditions: Homo sapiens, NCI-H1299; H1299 lung tumor cell line, 48 h
Procedure, shortened: as §1

U2OS = test: CellTiter-Blue cell-based survival/proliferation assay, U2OS; conditions: Homo sapiens; U2OS osteosarcoma cell line, 48 h
Procedure: as §2, §3

DU145 = test: CellTiter-Blue cell-based survival/proliferation assay, DU145; conditions: Homo sapiens, DU-145; DU145 prostate tumor cell line, 48 h
Procedure, shortened: as §1

PC3 = test: CellTiter-Blue cell-based survival/proliferation assay, PC3; conditions: Homo sapiens, PC-3; PC3 prostate tumor cell line, 48 h
Procedure, shortened: as §1

ACHN = test: CellTiter-Blue cell-based survival/proliferation assay, ACHN; conditions: Homo sapiens; ACHN kidney tumor cell line, 48 h
Procedure, shortened: as §1

A498 = test: CellTiter-Blue cell-based survival/proliferation assay, A498; conditions: Homo sapiens; A498 kidney tumor cell line, 48 h
Procedure, shortened: as §1

A4513 = test: CellTiter-Blue cell-based survival/proliferation assay, A4513; conditions: Homo sapiens; A4513 Ewing cell line, 48 h
Procedure: as §2, §3

A549 = test: CellTiter-Blue cell-based survival/proliferation assay, A549; conditions: Homo sapiens; A549 lung tumor cell line, 48 h
Procedure, shortened: as §1

MELWO = test: CellTiter-Blue cell-based survival/proliferation assay, MELWO; conditions: Homo sapiens; MEL_WO melanoma cell line, 48 h
Procedure: as §2, §3

CALU6 = test: CellTiter-Blue cell-based survival/proliferation assay, CALU6; conditions: Homo sapiens, Calu-6; CALU6 lung tumor cell line, 48 h
Procedure, shortened: as §1

HL60 = test: CellTiter-Blue cell-based survival/proliferation assay, HL60; conditions: Homo sapiens, HL-60, Leukemia cell line HL60, 48 h, read-out: Anti-tumoral activity (measured IC50) HL60
Procedure, shortened: as §1

SW579 = test: CellTiter-Blue cell-based survival/proliferation assay, SW579; conditions: Homo sapiens; SW579 head & neck tumor cell line, 48 h
Procedure, shortened: as §1

U87MG = test: CellTiter-Blue cell-based survival/proliferation assay, U87MG; conditions: Homo sapiens, U-87 MG; U87_MG glioblastoma cell line, 48 h
Procedure: as §2, §3

HEP2 = test: CellTiter-Blue cell-based survival/proliferation assay, HEP2; conditions: Homo sapiens, HEp-2; HEP2 head & neck tumor cell line, 48 h
Procedure, shortened: as §1

REC1 = test: CellTiter-Blue cell-based survival/proliferation assay, REC1; conditions: Homo sapiens, Lymphoma cell line REC1, 48 h, read-out: Anti-tumoral activity (measured IC50) REC1
Procedure, shortened: as §1

Row | SMILES | IC50 (HCT116) [µM] | IC50 (A375) [µM] | IC50 (PLCPRF5) [µM] | IC50 (AGS) [µM] | IC50 (BXPC3) [µM] | IC50 (DLD1) [µM] | IC50 (MDAMB231) [µM] | IC50 (U118) [µM] | IC50 (HGC27) [µM] | IC50 (HEPG2) [µM] | IC50 (HUT78) [µM] | IC50 (OPM2) [µM] | IC50 (KARPAS299) [µM] | IC50 (PANC1) [µM] | IC50 (CLS354) [µM] | IC50 (MESSA) [µM] | IC50 (TOV112D) [µM] | IC50 (BT20) [µM] | IC50 (H1299) [µM] | IC50 (U2OS) [µM] | further results
1 | CCOCc1ccc(C)c(Nc2nc(-c3ccc(N4CCNC4=O)cc3)ns2)c1 [Example 010, 1-{4-[5-(5-Ethoxymethyl-(2-methyl-phenylamino))-[1,2,4]thiadiazol-3-yl]-phenyl}-imidazolidin-2-one] | ≤ 0.1 | ≤ 0.1 | > 1 | > 1 | > 1 | > 1 | > 1 | > 1 | ≤ 0.1 | > 1 | ≤ 0.1 | ≤ 0.1 | ≤ 0.1 | > 1 | ≤ 0.1 | > 1 | ≤ 0.1 | > 1 | 0.1 to 0.5 | > 1 | IC50 (DU145): > 1 µM; IC50 (PC3): ≤ 0.1 µM; IC50 (ACHN): ≤ 0.1 µM; IC50 (A498): > 1 µM; IC50 (A4513): > 1 µM; IC50 (A549): > 1 µM; IC50 (MELWO): ≤ 0.1 µM; IC50 (CALU6): 0.5 to 1 µM; IC50 (HL60): ≤ 0.1 µM; IC50 (SW579): ≤ 0.1 µM; IC50 (U87MG): > 1 µM; IC50 (HEP2): ≤ 0.1 µM; IC50 (REC1): ≤ 0.1 µM
2 | COc1ccc(C)c(Nc2ncc(-c3ccc(-n4cccn4)cc3)s2)c1 [Example 011, (5-Methoxy-2-methyl-phenyl)-[5-(4-pyrazol-1-yl-phenyl)-thiazol-2-yl]-amine] | > 1 | > 1 | > 1 | > 1 | > 1 | > 1 | > 1 | > 1 | > 1 | > 1 | > 1 | > 1 | > 1 | > 1 | > 1 | > 1 | > 1 | > 1 | > 1 | > 1 | IC50 (DU145): > 1 µM; IC50 (PC3): > 1 µM; IC50 (ACHN): > 1 µM; IC50 (A498): > 1 µM; IC50 (A4513): > 1 µM; IC50 (A549): > 1 µM; IC50 (MELWO): > 1 µM; IC50 (CALU6): > 1 µM; IC50 (HL60): > 1 µM; IC50 (SW579): > 1 µM; IC50 (U87MG): > 1 µM; IC50 (HEP2): > 1 µM; IC50 (REC1): > 1 µM
3 | COc1ccc(C)c(Nc2ncc(-c3ccc(N4CCNC4=O)cc3)s2)c1 [Example 013, 1-{4-[2-(5-Methoxy-2-methyl-phenylamino)-thiazol-5-yl]-phenyl}-imidazolidin-2-one] | > 1 | > 1 | > 1 | > 1 | > 1 | > 1 | > 1 | > 1 | > 1 | > 1 | 0.5 to 1 | 0.1 to 0.5 | 0.5 to 1 | > 1 | > 1 | > 1 | > 1 | > 1 | > 1 | > 1 | IC50 (DU145): > 1 µM; IC50 (PC3): 0.5 to 1 µM; IC50 (ACHN): > 1 µM; IC50 (A498): > 1 µM; IC50 (A4513): 0.1 to 0.5 µM; IC50 (A549): > 1 µM; IC50 (MELWO): > 1 µM; IC50 (CALU6): > 1 µM; IC50 (HL60): 0.1 to 0.5 µM; IC50 (SW579): > 1 µM; IC50 (U87MG): > 1 µM; IC50 (HEP2): > 1 µM; IC50 (REC1): 0.5 to 1 µM
4 | CCOCc1ccc(C)c(Nc2ncc(-c3ccc(N4CCNC4=O)cc3)s2)c1 [Example 014, 1-{4-[2-(5-Ethoxymethyl-(2-methyl-phenylamino))-thiazol-5-yl]-phenyl}-imidazolidin-2-one] | > 1 | > 1 | > 1 | > 1 | > 1 | > 1 | > 1 | > 1 | > 1 | > 1 | > 1 | > 1 | 0.1 to 0.5 | > 1 | > 1 | > 1 | > 1 | > 1 | > 1 | > 1 | IC50 (DU145): > 1 µM; IC50 (PC3): > 1 µM; IC50 (ACHN): > 1 µM; IC50 (A498): > 1 µM; IC50 (A4513): 0.5 to 1 µM; IC50 (A549): > 1 µM; IC50 (MELWO): > 1 µM; IC50 (CALU6): > 1 µM; IC50 (HL60): > 1 µM; IC50 (SW579): > 1 µM; IC50 (U87MG): > 1 µM; IC50 (HEP2): > 1 µM; IC50 (REC1): > 1 µM
5 | CCOCc1ccc(C)c(Nc2nc(-c3ccc(-n4cccn4)cc3)cs2)c1 [Example 015, (5-Ethoxymethyl-2-methyl-phenyl)-[4-(4-pyrazol-1-yl-phenyl)-thiazol-2-yl]-amine] | > 1 | > 1 | > 1 | > 1 | > 1 | > 1 | > 1 | > 1 | > 1 | > 1 | ≤ 0.1 | 0.1 to 0.5 | ≤ 0.1 | > 1 | ≤ 0.1 | > 1 | 0.5 to 1 | > 1 | > 1 | > 1 | IC50 (DU145): > 1 µM; IC50 (PC3): ≤ 0.1 µM; IC50 (ACHN): > 1 µM; IC50 (A498): 0.5 to 1 µM; IC50 (A4513): 0.1 to 0.5 µM; IC50 (A549): > 1 µM; IC50 (MELWO): > 1 µM; IC50 (CALU6): > 1 µM; IC50 (HL60): ≤ 0.1 µM; IC50 (SW579): > 1 µM; IC50 (U87MG): > 1 µM; IC50 (HEP2): > 1 µM; IC50 (REC1): ≤ 0.1 µM
6 | Cc1ccc(CO)cc1Nc1nc(-c2ccc(-n3cccn3)cc2)cs1 [Example 016, {4-Methyl-3-[4-(4-pyrazol-1-yl-phenyl)-thiazol-2-ylamino]-phenyl}-methanol] | > 1 | > 1 | > 1 | > 1 | > 1 | > 1 | > 1 | > 1 | > 1 | > 1 | > 1 | > 1 | > 1 | > 1 | > 1 | > 1 | > 1 | > 1 | > 1 | > 1 | IC50 (DU145): > 1 µM; IC50 (PC3): > 1 µM; IC50 (ACHN): > 1 µM; IC50 (A498): > 1 µM; IC50 (A4513): > 1 µM; IC50 (A549): > 1 µM; IC50 (MELWO): > 1 µM; IC50 (CALU6): > 1 µM; IC50 (HL60): > 1 µM; IC50 (SW579): > 1 µM; IC50 (U87MG): > 1 µM; IC50 (HEP2): > 1 µM; IC50 (REC1): > 1 µM
